This data set is described as follows: Relative solubility by turbidity threshold concentration in aqueous buffers (pH 1.5, 4.5, 6.8, 7.4). The data set is classed as physicochemical. Particulars: for turbidity threshold (L, M, H) 1.4: pH 1.4 [sic] (method: SGF pH 1.5); for turbidity threshold (L, M, H) 4.5: pH 4.5 (SIF); for turbidity threshold (L, M, H) 6.8: pH 6.8 (SIF); for turbidity threshold (L, M, H) 7.4: pH 7.4 (HEPES). The procedure: As an indication of relative solubility, the turbidity of compounds in aqueous solutions is assessed. To assess possible compound properties in different physiological compartments, such as stomach, intestine, and blood, a series of aqueous buffers with varying pH is used. Thus each compound is diluted into four different physiologically relevant buffers and solution turbidity is measured by spectrophotometry.
Compounds are dissolved at a concentration of 25 mM in dimethyl sulfoxide, then serially diluted 1:1 into a 96 well plate, diluting 10 times in pure dimethyl sulfoxide, with the final well of each row a dimethyl sulfoxide blank. In an assay plate, 99 μL of appropriate buffer is added to each well, and 1 μL of each sample dilution is added to the buffer, achieving a range of final total concentrations in aqueous solutions having different pH. The buffers used are Simulated Gastric Fluid (SGF-pH 1.5) 0.5M NaCl, pH 1.5; Simulated Intestinal fluid (SIF-pH 4.5 and pH 6.8) 0.05M NaH2PO4, pH 4.5 and 6.8; and Hepes Buffer (HEPES-pH 7.4) 10 mM HEPES, 150 mM NaCl, pH 7.4. Control compounds pyrene, estriol and propranolol HCl are also assessed. Plates are spun and then mixed for 1 minute, and the absorbance is read using a Tecan Safire II to read wavelengths in the visible range (490, 535, and 650 nm) at four locations per well, reflecting the degree of turbidity present. The average optical density for each wavelength in each well is graphed vs. compound concentration, and the concentration at which the curve crosses a threshold O.D. of 0.01 for each wavelength is reported as the endpoint turbidity assay result. The average of the three wavelengths is used to compare turbidity of compounds. Compounds are considered to have low solubility if the threshold concentration is <31.3 μM, moderate solubility if the threshold concentration is 31.3 μM to 250 μM, and high solubility if the threshold concentration is >250 μm.
The following table indicates the relative solubility (L=low, M=moderate, H=high) based on turbidity threshold concentration at each pH for exemplary compounds according to the invention as indicated: […]

The structures appear in SMILES notation.

In the case of `CCCS(=O)(=O)Nc1ccc(F)c(C(=O)c2c[nH]c3ncnc(Nc4ccc(Cl)cc4)c23)c1F` [P-1087, Propane-1-sulfonic acid {3-[4-(4-chloro-phenylamino)-7H-pyrrolo[2,3-d]pyrimidine-5-carbonyl]-2,4-difluoro-phenyl}-amide], the “turbidity threshold (L, M, H) 1.4” value is “M (moderate solubility if the threshold concentration is 31.3 μM to 250 μM)”; the “turbidity threshold (L, M, H) 4.5” value was “L (low solubility if the threshold concentration is <31.3 μM)”; the “turbidity threshold (L, M, H) 6.8” value is recorded as “M (moderate solubility if the threshold concentration is 31.3 μM to 250 μM)”; the “turbidity threshold (L, M, H) 7.4” value is given as “M (moderate solubility if the threshold concentration is 31.3 μM to 250 μM)”.
As for `CCCS(=O)(=O)Nc1ccc(F)c(C(=O)c2c[nH]c3ncnc(Nc4cccc(OC)c4)c23)c1F` [P-1085, Propane-1-sulfonic acid {2,4-difluoro-3-[4-(3-methoxy-phenylamino)-7H-pyrrolo[2,3-d]pyrimidine-5-carbonyl]-phenyl}-amide], the “turbidity threshold (L, M, H) 1.4” value is listed as “L (low solubility if the threshold concentration is <31.3 μM)”; the “turbidity threshold (L, M, H) 4.5” value is reported as “L (low solubility if the threshold concentration is <31.3 μM)”; the “turbidity threshold (L, M, H) 6.8” value is on record as “L (low solubility if the threshold concentration is <31.3 μM)”; the “turbidity threshold (L, M, H) 7.4” value is listed as “L (low solubility if the threshold concentration is <31.3 μM)”.
Turning to `CCCS(=O)(=O)Nc1ccc(F)c(C(=O)c2c[nH]c3ncnc(Nc4ccncc4)c23)c1F` [P-1076, Propane-1-sulfonic acid {2,4-difluoro-3-[4-(pyridin-4-ylamino)-7H-pyrrolo[2,3-d]pyrimidine-5-carbonyl]-phenyl}-amide], the “turbidity threshold (L, M, H) 1.4” value was “H (high solubility if the threshold concentration is >250 μm)”; the “turbidity threshold (L, M, H) 4.5” value is listed as “H (high solubility if the threshold concentration is >250 μm)”; the “turbidity threshold (L, M, H) 6.8” value was “H (high solubility if the threshold concentration is >250 μm)”; the “turbidity threshold (L, M, H) 7.4” value is recorded as “H (high solubility if the threshold concentration is >250 μm)”.
As to `CCCS(=O)(=O)Nc1ccc(F)c(C(=O)c2c[nH]c3ncnc(NCC(C)C)c23)c1F` [P-1088, Propane-1-sulfonic acid [2,4-difluoro-3-(4-isobutylamino-7H-pyrrolo[2,3-d]pyrimidine-5-carbonyl)-phenyl]-amide], the “turbidity threshold (L, M, H) 1.4” value is “M (moderate solubility if the threshold concentration is 31.3 μM to 250 μM)”; the “turbidity threshold (L, M, H) 4.5” value is listed as “L (low solubility if the threshold concentration is <31.3 μM)”; the “turbidity threshold (L, M, H) 6.8” value is listed as “L (low solubility if the threshold concentration is <31.3 μM)”; the “turbidity threshold (L, M, H) 7.4” value is listed as “L (low solubility if the threshold concentration is <31.3 μM)”.
Regarding `Cc1nn(C)cc1Nc1ncnc2[nH]cc(C(=O)c3c(F)ccc(NS(=O)(=O)c4cc(F)ccc4F)c3F)c12` [P-1143, N-{3-[4-(1,3-Dimethyl-1H-pyrazol-4-ylamino)-7H-pyrrolo[2,3-d]pyrimidine-5-carbonyl]-2,4-difluoro-phenyl}-2,5-difluoro-benzenesulfonamide], the “turbidity threshold (L, M, H) 1.4” value was “L (low solubility if the threshold concentration is <31.3 μM)”; the “turbidity threshold (L, M, H) 4.5” value was “L (low solubility if the threshold concentration is <31.3 μM)”; the “turbidity threshold (L, M, H) 6.8” value is listed as “L (low solubility if the threshold concentration is <31.3 μM)”; the “turbidity threshold (L, M, H) 7.4” value is reported as “L (low solubility if the threshold concentration is <31.3 μM)”.
For the compound `CCCS(=O)(=O)Nc1ccc(F)c(C(=O)c2c[nH]c3ncnc(Nc4cnn(CC)c4)c23)c1F` [P-1099, Propane-1-sulfonic acid {3-[4-(1-ethyl-1H-pyrazol-4-ylamino)-7H-pyrrolo[2,3-d]pyrimidine-5-carbonyl]-2,4-difluoro-phenyl}-amide], the “turbidity threshold (L, M, H) 1.4” value is “M (moderate solubility if the threshold concentration is 31.3 μM to 250 μM)”; the “turbidity threshold (L, M, H) 4.5” value is on record as “L (low solubility if the threshold concentration is <31.3 μM)”; the “turbidity threshold (L, M, H) 6.8” value is listed as “M (moderate solubility if the threshold concentration is 31.3 μM to 250 μM)”; the “turbidity threshold (L, M, H) 7.4” value is recorded as “M (moderate solubility if the threshold concentration is 31.3 μM to 250 μM)”.
Turning to `CCCS(=O)(=O)Nc1ccc(F)c(C(=O)c2c[nH]c3ncnc(NC(C)C)c23)c1F` [P-1051, Propane-1-sulfonic acid [2,4-difluoro-3-(4-isopropylamino-7H-pyrrolo[2,3-d]pyrimidine-5-carbonyl)-phenyl]-amide], the “turbidity threshold (L, M, H) 1.4” value is “H (high solubility if the threshold concentration is >250 μm)”; the “turbidity threshold (L, M, H) 4.5” value is “M (moderate solubility if the threshold concentration is 31.3 μM to 250 μM)”; the “turbidity threshold (L, M, H) 6.8” value is recorded as “M (moderate solubility if the threshold concentration is 31.3 μM to 250 μM)”; the “turbidity threshold (L, M, H) 7.4” value is given as “M (moderate solubility if the threshold concentration is 31.3 μM to 250 μM)”.
Consider `CCCS(=O)(=O)Nc1ccc(F)c(C(=O)c2c[nH]c3ncnc(Nc4cccc(F)c4)c23)c1F` [P-1094, Propane-1-sulfonic acid {2,4-difluoro-3-[4-(3-fluoro-phenylamino)-7H-pyrrolo[2,3-d]pyrimidine-5-carbonyl]-phenyl}-amide], for which the “turbidity threshold (L, M, H) 1.4” value was “L (low solubility if the threshold concentration is <31.3 μM)”; the “turbidity threshold (L, M, H) 4.5” value is given as “L (low solubility if the threshold concentration is <31.3 μM)”; the “turbidity threshold (L, M, H) 6.8” value was “M (moderate solubility if the threshold concentration is 31.3 μM to 250 μM)”; the “turbidity threshold (L, M, H) 7.4” value is reported as “L (low solubility if the threshold concentration is <31.3 μM)”.
Turning to `CCCS(=O)(=O)Nc1ccc(F)c(C(=O)c2c[nH]c3ncnc(NC4CCN(CC)CC4)c23)c1F` [P-1095, Propane-1-sulfonic acid {3-[4-(1-ethyl-piperidin-4-ylamino)-7H-pyrrolo[2,3-d]pyrimidine-5-carbonyl]-2,4-difluoro-phenyl}-amide], the “turbidity threshold (L, M, H) 1.4” value is “H (high solubility if the threshold concentration is >250 μm)”; the “turbidity threshold (L, M, H) 4.5” value is “H (high solubility if the threshold concentration is >250 μm)”; the “turbidity threshold (L, M, H) 6.8” value is recorded as “H (high solubility if the threshold concentration is >250 μm)”; the “turbidity threshold (L, M, H) 7.4” value is “H (high solubility if the threshold concentration is >250 μm)”.
For the compound `CCCS(=O)(=O)Nc1ccc(F)c(C(=O)c2c[nH]c3ncnc(NC4CC4)c23)c1F` [P-1041, Propane-1-sulfonic acid [3-(4-cyclopropylamino-7H-pyrrolo[2,3-d]pyrimidine-5-carbonyl)-2,4-difluoro-phenyl]-amide], the “turbidity threshold (L, M, H) 1.4” value is listed as “H (high solubility if the threshold concentration is >250 μm)”; the “turbidity threshold (L, M, H) 4.5” value is “M (moderate solubility if the threshold concentration is 31.3 μM to 250 μM)”; the “turbidity threshold (L, M, H) 6.8” value is “M (moderate solubility if the threshold concentration is 31.3 μM to 250 μM)”; the “turbidity threshold (L, M, H) 7.4” value is recorded as “M (moderate solubility if the threshold concentration is 31.3 μM to 250 μM)”.
Consider `CCCS(=O)(=O)Nc1ccc(F)c(C(=O)c2c[nH]c3ncnc(CC(C)C)c23)c1F` [P-1014, Propane-1-sulfonic acid [2,4-difluoro-3-(4-isobutyl-7H-pyrrolo[2,3-d]pyrimidine-5-carbonyl)-phenyl]-amide], for which the “turbidity threshold (L, M, H) 1.4” value was “M (moderate solubility if the threshold concentration is 31.3 μM to 250 μM)”; the “turbidity threshold (L, M, H) 6.8” value was “M (moderate solubility if the threshold concentration is 31.3 μM to 250 μM)”; the “turbidity threshold (L, M, H) 7.4” value was “M (moderate solubility if the threshold concentration is 31.3 μM to 250 μM)”.
Consider `CCCS(=O)(=O)Nc1ccc(F)c(C(=O)c2c[nH]c3ncnc(Nc4cccc(Cl)c4)c23)c1F` [P-1084, Propane-1-sulfonic acid {3-[4-(3-chloro-phenylamino)-7H-pyrrolo[2,3-d]pyrimidine-5-carbonyl]-2,4-difluoro-phenyl}-amide], for which the “turbidity threshold (L, M, H) 1.4” value is reported as “M (moderate solubility if the threshold concentration is 31.3 μM to 250 μM)”; the “turbidity threshold (L, M, H) 4.5” value was “M (moderate solubility if the threshold concentration is 31.3 μM to 250 μM)”; the “turbidity threshold (L, M, H) 6.8” value is on record as “M (moderate solubility if the threshold concentration is 31.3 μM to 250 μM)”; the “turbidity threshold (L, M, H) 7.4” value was “M (moderate solubility if the threshold concentration is 31.3 μM to 250 μM)”.

For the origin of these results see patent publication US9617267B2, “Compounds and methods for kinase modulation, and indications therefor” (Plexxikon Inc., priority 2009, dated 2017).
